What follows are compounds tested against human activated kallikrein enzyme (Homo sapiens (Human), UniProt P03952) (assay: Plasma kallikrein inhibition assay with fluorogenic peptide substrate, 500 pM activated kallikrein format). Details: 500 pM activated kallikrein; 300 uM Pro-Phe-Arg-7-amido-4-methylcoumarin substrate; 30 min preincubation, 10 min reaction at RT; read-out: Primary Dose Response Assay: Average EC50.
Assay type: biochemical
How it was run: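 Pro-Phe-Arg-7-amido-4-methylcoumarin substrate (300 uM) started reactions after a 30 min RT enzyme–inhibitor preincubation. This format used 500 pM activated human kallikrein in Tris pH 7.5 buffer with EDTA, NaCl, PEG-400 and Triton X-100. AMC fluorescence (380/460 nm) was measured after 10 min at RT.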

human activated kallikrein enzyme, sequence (P03952 391-638): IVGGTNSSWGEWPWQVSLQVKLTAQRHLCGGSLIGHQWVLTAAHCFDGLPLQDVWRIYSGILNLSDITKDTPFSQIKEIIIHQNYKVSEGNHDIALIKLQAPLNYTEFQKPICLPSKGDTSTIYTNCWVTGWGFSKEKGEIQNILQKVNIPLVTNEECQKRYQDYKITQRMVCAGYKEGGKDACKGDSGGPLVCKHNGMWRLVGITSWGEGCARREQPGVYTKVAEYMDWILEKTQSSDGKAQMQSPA
human activated kallikrein enzyme, sequence (P03952 20-390 partner): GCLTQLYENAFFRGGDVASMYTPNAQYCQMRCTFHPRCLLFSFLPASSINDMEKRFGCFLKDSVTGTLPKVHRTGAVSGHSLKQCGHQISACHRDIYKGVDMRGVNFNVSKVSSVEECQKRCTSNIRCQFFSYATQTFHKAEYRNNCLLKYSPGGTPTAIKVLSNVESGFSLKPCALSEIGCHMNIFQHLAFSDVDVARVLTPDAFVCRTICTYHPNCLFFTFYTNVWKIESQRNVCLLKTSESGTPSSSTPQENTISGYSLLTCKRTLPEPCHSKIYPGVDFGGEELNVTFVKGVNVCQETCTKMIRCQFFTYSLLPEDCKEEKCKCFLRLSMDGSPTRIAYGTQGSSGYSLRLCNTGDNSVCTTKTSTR

EC50	Structure (SMILES)
100 to 2000 nM	COc1ccc(-c2cc3ccccn3n2)c(CNC(=O)c2cn(Cc3cn4cc(C5CC5)ccc4n3)nn2)c1F [Example I-63, 1-((6-cyclopropylimidazo[1,2-a]pyridin-2-yl)methyl)-N-(2-fluoro-3-methoxy-6-(pyrazolo[1,5-a]pyridin-2-yl)benzyl)-1H-1,2,3-triazole-4-carboxamide]
10 to 100 nM	COc1ccc(F)c(CNC(=O)c2cn(Cc3cn4cc(C5CC5)ccc4n3)nn2)c1F [Example I-64, 1-((6-cyclopropylimidazo[1,2-a]pyridin-2-yl)methyl)-N-(2,6-difluoro-3-methoxybenzyl)-1H-1,2,3-triazole-4-carboxamide]
10 to 100 nM	O=C(NCc1ccc2[nH]cc(Cl)c2c1)c1cn(Cc2cn3cc(C4CC4)ccc3n2)nn1 [Example I-65, N-((3-chloro-1H-indol-5-yl)methyl)-1-((6-cyclopropylimidazo[1,2-a]pyridin-2-yl)methyl)-1H-1,2,3-triazole-4-carboxamide]
100 to 2000 nM	COc1ccc(-n2cnnn2)c(CN(C)C(=O)c2cn(Cc3cn4cc(C5CC5)ccc4n3)nn2)c1F [Example I-66, 1-((6-cyclopropylimidazo[1,2-a]pyridin-2-yl)methyl)-N-(2-fluoro-3-methoxy-6-(1H-tetrazol-1-yl)benzyl)-N-methyl-1H-1,2,3-triazole-4-carboxamide]
1 to 10 nM	COc1ccc(-c2cn[nH]c2)c(CNC(=O)c2cn(Cc3cn4cc(C5CC5)ccc4n3)nn2)c1F [Example I-67, 1-((6-cyclopropylimidazo[1,2-a]pyridin-2-yl)methyl)-N-(2-fluoro-3-methoxy-6-(1H-pyrazol-4-yl)benzyl)-1H-1,2,3-triazole-4-carboxamide]
≤ 1 nM	COc1ccc(-n2cnnn2)c(CNC(=O)c2cn(Cc3cn4cc(C5CC5)cc(CC5COC5)c4n3)nn2)c1F [Example I-68, 1-((6-cyclopropyl-8-(oxetan-3-ylmethyl)imidazo[1,2-a]pyridin-2-yl)methyl)-N-(2-fluoro-3-methoxy-6-(1H-tetrazol-1-yl)benzyl)-1H-1,2,3-triazole-4-carboxamide]
≤ 1 nM	COc1ccc(-n2cnnn2)c(CNC(=O)c2nnn(Cc3cn4cc(C5CC5)cc(F)c4n3)n2)c1F [Example I-69, 2-((6-cyclopropyl-8-fluoroimidazo[1,2-a]pyridin-2-yl)methyl)-N-(2-fluoro-3-methoxy-6-(1H-tetrazol-1-yl)benzyl)-2H-tetrazole-5-carboxamide]
10 to 100 nM	COc1ccc(-c2cn3ccccc3n2)c(CNC(=O)c2cn(Cc3cn4cc(C5CC5)ccc4n3)nn2)c1F [Example I-70, 1-((6-cyclopropylimidazo[1,2-a]pyridin-2-yl)methyl)-N-(2-fluoro-6-(imidazo[1,2-a]pyridin-2-yl)-3-methoxybenzyl)-1H-1,2,3-triazole-4-carboxamide]
≤ 1 nM	COc1ccc(-n2cnnn2)c(CNC(=O)c2cn(Cc3cn4cc(C5CC5)cc(-n5cnnc5)c4n3)nn2)c1F [Example I-71, 1-((6-cyclopropyl-8-(4H-1,2,4-triazol-4-yl)imidazo[1,2-a]pyridin-2-yl)methyl)-N-(2-fluoro-3-methoxy-6-(1H-tetrazol-1-yl)benzyl)-1H-1,2,3-triazole-4-carboxamide]
100 to 2000 nM	COc1ncc(C#N)c(CNC(=O)c2cn(Cc3cn4cc(C5CC5)ccc4n3)nn2)c1F [Example I-72, N-((5-cyano-3-fluoro-2-methoxypyridin-4-yl)methyl)-1-((6-cyclopropylimidazo[1,2-a]pyridin-2-yl)methyl)-1H-1,2,3-triazole-4-carboxamide]
10 to 100 nM	COc1ccc(-n2cc(C)c(C)n2)c(CNC(=O)c2cn(Cc3cn4cc(C5CC5)ccc4n3)nn2)c1F [Example I-73, 1-((6-cyclopropylimidazo[1,2-a]pyridin-2-yl)methyl)-N-(6-(3,4-dimethyl-1H-pyrazol-1-yl)-2-fluoro-3-methoxybenzyl)-1H-1,2,3-triazole-4-carboxamide]
1 to 10 nM	COc1ccc(-c2cnc(C(=O)O)nc2)c(CNC(=O)c2cn(Cc3cn4cc(C5CC5)ccc4n3)nn2)c1F [Example I-74, 5-(2-((1-((6-cyclopropylimidazo[1,2-a]pyridin-2-yl)methyl)-1H-1,2,3-triazole-4-carboxamido)methyl)-3-fluoro-4-methoxyphenyl)pyrimidine-2-carboxylic Acid]
1 to 10 nM	COC(=O)c1ncc(-c2ccc(OC)c(F)c2CNC(=O)c2cn(Cc3cn4cc(C5CC5)ccc4n3)nn2)cn1 [Example I-75, Methyl 5-(2-((1-((6-cyclopropylimidazo[1,2-a]pyridin-2-yl)methyl)-1H-1,2,3-triazole-4-carboxamido)methyl)-3-fluoro-4-methoxyphenyl)pyrimidine-2-carboxylate]
≤ 1 nM	COc1ccc(-n2ccnn2)c(CNC(=O)c2cn(Cc3cn4cc(C5CC5)ccc4n3)nn2)c1F [Example I-76, 1-((6-cyclopropylimidazo[1,2-a]pyridin-2-yl)methyl)-N-(2-fluoro-3-methoxy-6-(1H-1,2,3-triazol-1-yl)benzyl)-1H-1,2,3-triazole-4-carboxamide]
> 7100 nM	O=C(NCc1cc2ccc(Cl)cc2s1)c1cn(Cc2cn3cc(C4CC4)ccc3n2)nn1 [Example I-77, N-((6-chlorobenzo[b]thiophen-2-yl)methyl)-1-((6-cyclopropylimidazo[1,2-a]pyridin-2-yl)methyl)-1H-1,2,3-triazole-4-carboxamide]
10 to 100 nM	O=C(NCc1c(-n2cnnn2)ccc(C2CC2)c1F)c1cn(Cc2cn3cc(C4CC4)ccc3n2)nn1 [Example I-78, N-(3-cyclopropyl-2-fluoro-6-(1H-tetrazol-1-yl)benzyl)-1-((6-cyclopropylimidazo[1,2-a]pyridin-2-yl)methyl)-1H-1,2,3-triazole-4-carboxamide]
10 to 100 nM	O=C(NCc1c(C(F)F)ccc(Cl)c1F)c1cn(Cc2cn3cc(C4CC4)ccc3n2)nn1 [Example I-79, N-(3-chloro-6-(difluoromethyl)-2-fluorobenzyl)-1-((6-cyclopropylimidazo[1,2-a]pyridin-2-yl)methyl)-1H-1,2,3-triazole-4-carboxamide]
100 to 2000 nM	Cc1c(Cl)ccc(-n2cnnn2)c1CNC(=O)c1cn(Cc2cn3cc(C4CC4)ccc3n2)nn1 [Example I-80, N-(3-chloro-2-methyl-6-(1H-tetrazol-1-yl)benzyl)-1-((6-cyclopropylimidazo[1,2-a]pyridin-2-yl)methyl)-1H-1,2,3-triazole-4-carboxamide]
≤ 1 nM	COc1ccc(-n2cnnn2)c(CNC(=O)c2cn(Cc3cn4cc(C5CC5)cc(CC(C)(C)C(=O)O)c4n3)nn2)c1F [Example I-81, 3-(6-cyclopropyl-2-((4-((2-fluoro-3-methoxy-6-(1H-tetrazol-1-yl)benzyl)carbamoyl)-1H-1,2,3-triazol-1-yl)methyl)imidazo[1,2-a]pyridin-8-yl)-2,2-dimethylpropanoic acid]
10 to 100 nM	CCc1ccc(-n2cnnn2)c(CNC(=O)c2cn(Cc3cn4cc(C5CC5)ccc4n3)nn2)c1F [Example I-83, 1-((6-cyclopropylimidazo[1,2-a]pyridin-2-yl)methyl)-N-(3-ethyl-2-fluoro-6-(1H-tetrazol-1-yl)benzyl)-1H-1,2,3-triazole-4-carboxamide]
100 to 2000 nM	O=C(NCc1ccc2sccc2c1)c1cn(Cc2cn3cc(C4CC4)ccc3n2)nn1 [Example I-84, N-(benzo[b]thiophen-5-ylmethyl)-1-((6-cyclopropylimidazo[1,2-a]pyridin-2-yl)methyl)-1H-1,2,3-triazole-4-carboxamide]

— US11787796B2, “Plasma Kallikrein inhibitors and uses thereof” (Takeda Pharmaceutical Company Limited, priority 2019, dated 2023)
